Laboratory results taken from ChEMBL document CHEMBL3045546, “Synthesis and antimicrobial screening of 4-thiazolidinone and 2-azetidinone derivatives of piperazine” (2013).
≈ marks a conversion by molar mass, not a printed value.

Key:
Assay type in all cases: functional
Micrococcus luteus = test: Antimicrobial activity against Micrococcus luteus ATCC 4698 assessed as growth inhibition by broth dilution method
Bacillus pumilus = test: Antimicrobial activity against Bacillus pumilus ATCC 14884 assessed as growth inhibition by broth dilution method
Bacillus cereus = test: Antimicrobial activity against Bacillus cereus ATCC 11778 assessed as growth inhibition by broth dilution method
Microsporum canis = test: Antimicrobial activity against Arthroderma otae ATCC 11622 assessed as growth inhibition by broth dilution method
Aspergillus flavus = test: Antimicrobial activity against Aspergillus flavus ATCC 15517 assessed as growth inhibition by broth dilution method
Aspergillus fumigatus = test: Antimicrobial activity against Aspergillus fumigatus assessed as growth inhibition by broth dilution method
Salmonella typhi = test: Antimicrobial activity against Salmonella enterica subsp. enterica serovar Typhi ATCC 19430 assessed as growth inhibition by broth dilution method
Aspergillus awamori = test: Antimicrobial activity against Aspergillus awamori ATCC 22342 assessed as growth inhibition by broth dilution method
Fusarium solani = test: Antimicrobial activity against Fusarium solani ATCC 38136 assessed as growth inhibition by broth dilution method
Trichoderma viride = test: Antimicrobial activity against Hypocrea rufa ATCC 52440 assessed as growth inhibition by broth dilution method
Klebsiella pneumoniae = test: Antimicrobial activity against Klebsiella pneumoniae ATCC 13883 assessed as growth inhibition by broth dilution method
Staphylococcus aureus = test: Antimicrobial activity against Staphylococcus aureus ATCC 25923 assessed as growth inhibition by broth dilution method
Aspergillus niger = test: Antimicrobial activity against Aspergillus niger ATCC 9142 assessed as growth inhibition by broth dilution method
Pseudomonas aeruginosa = test: Antimicrobial activity against Pseudomonas aeruginosa ATCC 10145 assessed as growth inhibition by broth dilution method
Rhizoctonia solani = test: Antimicrobial activity against Rhizoctonia solani ATCC 76131 assessed as growth inhibition by broth dilution method
Staphylococcus hominis = test: Antimicrobial activity against Staphylococcus hominis ATCC 27844 assessed as growth inhibition by broth dilution method
Trichophyton longifusum = test: Antimicrobial activity against Trichophyton longifusum ATCC 22397 assessed as growth inhibition by broth dilution method
Bacillus subtilis = test: Antimicrobial activity against Bacillus subtilis ATCC 6633 assessed as growth inhibition by broth dilution method
Proteus mirabilis = test: Antimicrobial activity against Proteus mirabilis ATCC 49565 assessed as growth inhibition by broth dilution method
Proteus vulgaris = test: Antimicrobial activity against Proteus vulgaris ATCC 13315 assessed as growth inhibition by broth dilution method
Candida albicans = test: Antimicrobial activity against Candida albicans ATCC 10231 assessed as growth inhibition by broth dilution method
Alternaria alternata = test: Antimicrobial activity against Alternaria alternata ATCC 66868 assessed as growth inhibition by broth dilution method
Escherichia coli = test: Antimicrobial activity against Escherichia coli ATCC 25922 assessed as growth inhibition by broth dilution method
[1] = system: Staphylococcus epidermidis; test: Antimicrobial activity against Staphylococcus epidermidis ATCC 12228 assessed as growth inhibition by broth dilution method

| Compound | MIC (Micrococcus luteus) | MIC (Bacillus pumilus) | MIC (Bacillus cereus) | MIC (Microsporum canis) | MIC (Aspergillus flavus) | MIC (Aspergillus fumigatus) | MIC (Salmonella typhi) | MIC (Aspergillus awamori) | MIC (Fusarium solani) | MIC (Trichoderma viride) | MIC (Klebsiella pneumoniae) | MIC (Staphylococcus aureus) | MIC (Aspergillus niger) | MIC (Pseudomonas aeruginosa) | MIC (Rhizoctonia solani) | MIC (Staphylococcus hominis) | MIC (Trichophyton longifusum) | MIC (Bacillus subtilis) | MIC (Proteus mirabilis) | MIC (Proteus vulgaris) | other results |
| --- | --- | --- | --- | --- | --- | --- | --- | --- | --- | --- | --- | --- | --- | --- | --- | --- | --- | --- | --- | --- | --- |
| COc1ccc(C2SCC(=O)N2CCN2CCNCC2)cc1O (centres undefined) | 9.37 µg/mL (≈ 27.8 µM) | 9.37 µg/mL (≈ 27.8 µM) | 4.68 µg/mL (≈ 13.9 µM) | 9.37 µg/mL (≈ 27.8 µM) | 9.37 µg/mL (≈ 27.8 µM) | 9.37 µg/mL (≈ 27.8 µM) | 9.37 µg/mL (≈ 27.8 µM) | 9.37 µg/mL (≈ 27.8 µM) | 18.8 µg/mL (≈ 55.6 µM) | 18.8 µg/mL (≈ 55.6 µM) | 4.68 µg/mL (≈ 13.9 µM) | 9.37 µg/mL (≈ 27.8 µM) | 18.8 µg/mL (≈ 55.6 µM) | 9.37 µg/mL (≈ 27.8 µM) | 9.37 µg/mL (≈ 27.8 µM) | 9.37 µg/mL (≈ 27.8 µM) | 18.8 µg/mL (≈ 55.6 µM) | 9.37 µg/mL (≈ 27.8 µM) | 9.37 µg/mL (≈ 27.8 µM) | 9.37 µg/mL (≈ 27.8 µM) | MIC (Candida albicans): 9.37 µg/mL (≈ 27.8 µM); MIC (Alternaria alternata): 18.8 µg/mL (≈ 55.6 µM); MIC (Escherichia coli): 9.37 µg/mL (≈ 27.8 µM); MIC [1]: 9.37 µg/mL (≈ 27.8 µM) |
| O=C1CSC(c2ccccc2O)N1CCN1CCNCC1 (centres undefined) | 150 µg/mL (≈ 488 µM) | 150 µg/mL (≈ 488 µM) | 75 µg/mL (≈ 244 µM) | 300 µg/mL (≈ 976 µM) | 150 µg/mL (≈ 488 µM) | 150 µg/mL (≈ 488 µM) | 75 µg/mL (≈ 244 µM) | 300 µg/mL (≈ 976 µM) | 300 µg/mL (≈ 976 µM) | 300 µg/mL (≈ 976 µM) | 75 µg/mL (≈ 244 µM) | 150 µg/mL (≈ 488 µM) | 300 µg/mL (≈ 976 µM) | 75 µg/mL (≈ 244 µM) | 150 µg/mL (≈ 488 µM) | 75 µg/mL (≈ 244 µM) | 300 µg/mL (≈ 976 µM) | 75 µg/mL (≈ 244 µM) | 150 µg/mL (≈ 488 µM) | 150 µg/mL (≈ 488 µM) | MIC (Candida albicans): 150 µg/mL (≈ 488 µM); MIC (Alternaria alternata): 150 µg/mL (≈ 488 µM); MIC (Escherichia coli): 75 µg/mL (≈ 244 µM); MIC [1]: 75 µg/mL (≈ 244 µM) |
| O=C1CSC(c2cccc(O)c2)N1CCN1CCNCC1 (centres undefined) | 18.8 µg/mL (≈ 61 µM) | 37.5 µg/mL (≈ 122 µM) | 18.8 µg/mL (≈ 61 µM) | 37.5 µg/mL (≈ 122 µM) | 37.5 µg/mL (≈ 122 µM) | 37.5 µg/mL (≈ 122 µM) | 18.8 µg/mL (≈ 61 µM) | 37.5 µg/mL (≈ 122 µM) | 75 µg/mL (≈ 244 µM) | 37.5 µg/mL (≈ 122 µM) | 37.5 µg/mL (≈ 122 µM) | 37.5 µg/mL (≈ 122 µM) | 37.5 µg/mL (≈ 122 µM) | 37.5 µg/mL (≈ 122 µM) | 37.5 µg/mL (≈ 122 µM) | 37.5 µg/mL (≈ 122 µM) | 37.5 µg/mL (≈ 122 µM) | 37.5 µg/mL (≈ 122 µM) | 18.8 µg/mL (≈ 61 µM) | 37.5 µg/mL (≈ 122 µM) | MIC (Candida albicans): 37.5 µg/mL (≈ 122 µM); MIC (Alternaria alternata): 75 µg/mL (≈ 244 µM); MIC (Escherichia coli): 37.5 µg/mL (≈ 122 µM); MIC [1]: 18.8 µg/mL (≈ 61 µM) |
| O=C1CSC(c2ccc(O)cc2)N1CCN1CCNCC1 (centres undefined) | 9.37 µg/mL (≈ 30.5 µM) | 9.37 µg/mL (≈ 30.5 µM) | 9.37 µg/mL (≈ 30.5 µM) | 18.8 µg/mL (≈ 61 µM) | 18.8 µg/mL (≈ 61 µM) | 9.37 µg/mL (≈ 30.5 µM) | 9.37 µg/mL (≈ 30.5 µM) | 18.8 µg/mL (≈ 61 µM) | 9.73 µg/mL (≈ 31.7 µM) | 18.8 µg/mL (≈ 61 µM) | 9.37 µg/mL (≈ 30.5 µM) | 9.37 µg/mL (≈ 30.5 µM) | 18.8 µg/mL (≈ 61 µM) | 9.37 µg/mL (≈ 30.5 µM) | 18.8 µg/mL (≈ 61 µM) | 9.37 µg/mL (≈ 30.5 µM) | 9.73 µg/mL (≈ 31.7 µM) | 4.68 µg/mL (≈ 15.2 µM) | 9.37 µg/mL (≈ 30.5 µM) | 4.68 µg/mL (≈ 15.2 µM) | MIC (Candida albicans): 9.73 µg/mL (≈ 31.7 µM); MIC (Alternaria alternata): 18.8 µg/mL (≈ 61 µM); MIC (Escherichia coli): 4.68 µg/mL (≈ 15.2 µM); MIC [1]: 9.37 µg/mL (≈ 30.5 µM) |
| O=C1CSC(c2ccccc2)N1CCN1CCNCC1 (centres undefined) | 75 µg/mL (≈ 257 µM) | 75 µg/mL (≈ 257 µM) | 37.5 µg/mL (≈ 129 µM) | 37.5 µg/mL (≈ 129 µM) | 75 µg/mL (≈ 257 µM) | 37.5 µg/mL (≈ 129 µM) | 18.8 µg/mL (≈ 64.3 µM) | 75 µg/mL (≈ 257 µM) | 37.5 µg/mL (≈ 129 µM) | 75 µg/mL (≈ 257 µM) | 37.5 µg/mL (≈ 129 µM) | 37.5 µg/mL (≈ 129 µM) | 75 µg/mL (≈ 257 µM) | 37.5 µg/mL (≈ 129 µM) | 37.5 µg/mL (≈ 129 µM) | 37.5 µg/mL (≈ 129 µM) | 75 µg/mL (≈ 257 µM) | 37.5 µg/mL (≈ 129 µM) | 37.5 µg/mL (≈ 129 µM) | 18.8 µg/mL (≈ 64.3 µM) | MIC (Candida albicans): 37.5 µg/mL (≈ 129 µM); MIC (Alternaria alternata): 75 µg/mL (≈ 257 µM); MIC (Escherichia coli): 37.5 µg/mL (≈ 129 µM); MIC [1]: 75 µg/mL (≈ 257 µM) |
| COc1cc(C2SCC(=O)N2CCN2CCNCC2)ccc1O (centres undefined) | 4.68 µg/mL (≈ 13.9 µM) | 9.37 µg/mL (≈ 27.8 µM) | 9.37 µg/mL (≈ 27.8 µM) | 18.8 µg/mL (≈ 55.6 µM) | 18.8 µg/mL (≈ 55.6 µM) | 18.8 µg/mL (≈ 55.6 µM) | 9.37 µg/mL (≈ 27.8 µM) | 9.73 µg/mL (≈ 28.8 µM) | 9.73 µg/mL (≈ 28.8 µM) | 18.8 µg/mL (≈ 55.6 µM) | 9.37 µg/mL (≈ 27.8 µM) | 9.37 µg/mL (≈ 27.8 µM) | 9.73 µg/mL (≈ 28.8 µM) | 9.37 µg/mL (≈ 27.8 µM) | 18.8 µg/mL (≈ 55.6 µM) | 9.37 µg/mL (≈ 27.8 µM) | 9.73 µg/mL (≈ 28.8 µM) | 9.37 µg/mL (≈ 27.8 µM) | 9.37 µg/mL (≈ 27.8 µM) | 9.37 µg/mL (≈ 27.8 µM) | MIC (Candida albicans): 18.8 µg/mL (≈ 55.6 µM); MIC (Alternaria alternata): 9.73 µg/mL (≈ 28.8 µM); MIC (Escherichia coli): 9.37 µg/mL (≈ 27.8 µM); MIC [1]: 9.37 µg/mL (≈ 27.8 µM) |
